Columns and labels:
[1] = tested on: VEGFR2, cMet, PDGFRβ, and IGF1R; settings: VEGFR2, c-Met, literature; cited from earlier work
[2] = tested on: STAT3; test: Western blot of MEC lysates: STAT3 phosphorylation; type: cell-based, human; settings: Ang2 and AXT107 treatment
Experimental: (§1) To investigate the effects of the integrin inhibitor AXT107 on Tie2 signaling, confluent monolayers of microvascular endothelial cells (MECs) on fibronectin-coated dishes were treated with various concentrations of AXT107 followed by exposure to the Tie2 ligands Ang1 or Ang2.
(§2) Human dermal microvascular endothelial cells (Lonza) were maintained at 37° C. and 5% CO2 in EBM-2MV medium (Lonza) and used between passages two through seven. Where applicable, cells were serum starved in EBM-2 medium (Lonza) with no supplements. For FITC-Dextran permeability assays phenol red-free media were used to avoid auto-fluorescence. […]
(§3) For Ang1/2 signaling investigations, cell culture dishes (10 cm diameter) were coated with 5 μg/ml fibronectin (FN1; Sigma-Aldrich, St. Louis, Mo.) for two hours at 37° C. […] Specific proteins were identified by Western blot, using the following primary antibodies: Cell Signaling—phospho-Tie2 (Y992) (Cat #: 4221), Tie2 (Cat #: 7403), phospho-Stat3 (Y705) (Cat #: 4113), Stat3 (Cat #: 4904), phospho-Akt (S473) (Cat #: 4058), Akt (Cat #: 9272), phospho-p44/42 MAPK (T202/Y204) (Cat #: 4370), p44/42 MAPK (Cat #: 4695); BD Transduction Laboratories—β1 integrin (Cat #: 610467); Millipore—α5 integrin (Cat #: AB1928) and detected with HRP-conjugated goat anti-rabbit and sheep anti-mouse secondary antibodies (GE healthcare).

[3] = tested on: Akt; test: Western blot of MEC lysates: Akt phosphorylation; type: cell-based, human; settings: Ang2 and AXT107 treatment
Experimental: as §1, §2, §3

[4] = biological target: integrin α5β1 (Homo sapiens, UniProt P05556+P08648); settings: Lee et al. 2014; Lima et al. 2017; cited from earlier work
[5] = tested on: phospho-Tie2 (Y992); test: Immunofluorescence of MEC monolayers for phospho-Tie2 (Y992); type: cell-based, human; settings: 200 ng/ml Ang2 for fifteen minutes plus AXT107
Experimental: As such, subsequent experiments evaluate the effects of AXT107 at cell-cell junctions in MEC monolayers using immunofluorescence microscopy rather than at the EC-ECM interface.
Human dermal microvascular endothelial cells (Lonza) were maintained at 37° C. and 5% CO2 in EBM-2MV medium (Lonza) and used between passages two through seven. Where applicable, cells were serum starved in EBM-2 medium (Lonza) with no supplements. For FITC-Dextran permeability assays phenol red-free media were used to avoid auto-fluorescence. AXT107 were manufactured at New England Peptide by […], lyophilized, and dissolved in 100% DMSO.
Glass-bottomed, 96-well plates with half well size were coated with 10 μg/ml FN1 for two hours at 37° C. The FN1 solution was then removed by aspiration and the plate seeded with 4×10^3 MECs in EGM-2MV media. After twenty-four hours, the cells were washed once with dPBS containing Ca^2+ and Mg^2+ to remove dead cells and the cells were allowed to grow for an additional twenty-four hours. For three-hour duration treatments (i.e., VE-cadherin), cells were washed twice with dPBS containing Ca^2+ and Mg^2+ and serum starved in EBM-2 for ninety minutes. The media was then removed and the cells were treated for three hours with 100 μl of EBM-2 media containing 200 ng/ml Ang2 or PBS and varying concentrations of AXT107 or DMSO. […]

[6] = Self-assembly of peptide in media; type: physicochemical; settings: added to media

Sequence of integrin α5β1 (P08648 42-1049): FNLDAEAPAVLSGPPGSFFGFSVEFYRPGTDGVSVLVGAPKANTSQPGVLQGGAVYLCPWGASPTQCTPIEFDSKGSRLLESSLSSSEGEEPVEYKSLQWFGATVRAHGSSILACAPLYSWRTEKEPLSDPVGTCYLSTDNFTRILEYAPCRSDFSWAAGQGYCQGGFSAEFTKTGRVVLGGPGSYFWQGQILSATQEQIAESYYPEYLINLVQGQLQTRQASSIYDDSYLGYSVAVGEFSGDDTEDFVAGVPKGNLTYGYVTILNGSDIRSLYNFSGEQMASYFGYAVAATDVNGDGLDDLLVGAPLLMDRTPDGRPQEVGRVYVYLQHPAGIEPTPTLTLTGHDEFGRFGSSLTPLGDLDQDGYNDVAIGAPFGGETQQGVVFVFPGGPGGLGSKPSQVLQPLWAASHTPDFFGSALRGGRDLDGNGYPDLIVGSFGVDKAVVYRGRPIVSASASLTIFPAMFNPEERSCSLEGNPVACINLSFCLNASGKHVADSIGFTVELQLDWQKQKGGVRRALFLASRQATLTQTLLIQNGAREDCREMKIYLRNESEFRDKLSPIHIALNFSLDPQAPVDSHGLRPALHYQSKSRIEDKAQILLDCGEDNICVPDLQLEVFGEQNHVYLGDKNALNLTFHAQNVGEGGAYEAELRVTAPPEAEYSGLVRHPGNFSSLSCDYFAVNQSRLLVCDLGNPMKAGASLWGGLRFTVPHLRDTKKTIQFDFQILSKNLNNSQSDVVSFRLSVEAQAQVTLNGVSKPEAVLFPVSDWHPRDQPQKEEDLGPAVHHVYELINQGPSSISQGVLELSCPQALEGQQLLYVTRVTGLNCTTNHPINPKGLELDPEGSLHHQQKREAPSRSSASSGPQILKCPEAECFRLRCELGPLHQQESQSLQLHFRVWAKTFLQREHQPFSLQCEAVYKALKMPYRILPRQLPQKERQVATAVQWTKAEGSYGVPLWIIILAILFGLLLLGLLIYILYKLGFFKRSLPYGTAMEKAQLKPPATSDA
Sequence of integrin α5β1 (P05556 21-798): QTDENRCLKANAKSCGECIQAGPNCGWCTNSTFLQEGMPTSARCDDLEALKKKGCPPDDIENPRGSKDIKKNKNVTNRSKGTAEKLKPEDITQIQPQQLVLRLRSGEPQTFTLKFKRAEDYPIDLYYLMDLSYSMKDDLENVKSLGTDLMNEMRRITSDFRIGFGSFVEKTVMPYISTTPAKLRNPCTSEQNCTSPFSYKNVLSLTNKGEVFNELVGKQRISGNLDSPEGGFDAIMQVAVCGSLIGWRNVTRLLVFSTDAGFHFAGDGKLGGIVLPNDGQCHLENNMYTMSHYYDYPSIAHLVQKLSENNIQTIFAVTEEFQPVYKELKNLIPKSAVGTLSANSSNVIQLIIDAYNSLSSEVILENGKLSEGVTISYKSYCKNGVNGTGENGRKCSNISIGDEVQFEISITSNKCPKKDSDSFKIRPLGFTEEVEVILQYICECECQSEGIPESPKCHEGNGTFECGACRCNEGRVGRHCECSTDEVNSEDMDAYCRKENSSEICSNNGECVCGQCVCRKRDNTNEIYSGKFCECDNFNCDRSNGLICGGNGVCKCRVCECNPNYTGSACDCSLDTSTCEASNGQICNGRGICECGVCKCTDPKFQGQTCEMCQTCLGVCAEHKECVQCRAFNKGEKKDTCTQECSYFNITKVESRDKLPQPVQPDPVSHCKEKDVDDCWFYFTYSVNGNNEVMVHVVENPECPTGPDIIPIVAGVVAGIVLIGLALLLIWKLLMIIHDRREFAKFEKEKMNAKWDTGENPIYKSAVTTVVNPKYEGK

**Q.** With LRRFSTAPFAFIDINDVINF [AXT107] as the sequence, how does the “Receptor phosphorylation and downstream signals of RTKs” value [1] read?
**A.** significantly decreases receptor phosphorylation and downstream signals

**Q.** And the STAT3 phosphorylation [2]?
**A.** also increased

**Q.** And the Akt phosphorylation [3]?
**A.** also increased

**Q.** What about the “Binding to integrin α5β1” value [4] of the same sequence?
**A.** binds tightly

**Q.** And the “phospho-Tie2 fluorescence intensity and distribution” value [5]?
**A.** increased overall fluorescence intensity and redistributed phospho-Tie2 along cell-cell junctions and into large clusters

**Q.** And the Self-assembly in media [6]?
**A.** self-assemble into peptide complexes when added to media

Reference: US11674959B2, “Methods for identifying and preparing pharmaceutical agents for activating Tie1 and/or Tie2 receptors” (The Johns Hopkins University, priority 2017, dated 2023)
